# Experimental data from ChEMBL document CHEMBL3872220, “Amphiphilic xanthones as a potent chemical entity of anti-mycobacterial agents with membrane-targeting properties” (Eur J Med Chem, 2016).
# Activity calls are given as the source filed them. The rule behind the calls is not given here.
# Assays:
# [1] = tested on: Mycobacterium tuberculosis variant bovis; assay: Antimycobacterial activity against Mycobacterium bovis BCG ATCC 35734 assessed as ATP leakage by measuring extracellular ATP at 2 times MIC measured at 1 hr post dose by luciferase reporter gene assay; type: functional, Mycobacterium tuberculosis variant bovis BCG
# [2] = tested on: Mycobacterium tuberculosis variant bovis; assay: Antimycobacterial activity against Mycobacterium bovis BCG ATCC 35734 assessed as ATP leakage by measuring extracellular ATP at 1 MIC measured at 3 hrs post dose by luciferase reporter gene assay; type: functional, Mycobacterium tuberculosis variant bovis BCG
# [3] = tested on: Mycobacterium tuberculosis variant bovis; assay: Antimycobacterial activity against Mycobacterium bovis BCG ATCC 35734 assessed as ATP leakage by measuring intracellular ATP at 2 times MIC measured at 6 hrs post dose by luciferase reporter gene assay; type: functional, Mycobacterium tuberculosis variant bovis BCG
# [4] = tested on: Mycobacterium tuberculosis variant bovis; assay: Antimycobacterial activity against Mycobacterium bovis BCG ATCC 35734 assessed as ATP leakage by measuring intracellular ATP at 4 times MIC measured immediatey after addition of compounds by luciferase reporter gene assay; type: functional, Mycobacterium tuberculosis variant bovis BCG
# [5] = tested on: Mycobacterium tuberculosis variant bovis; assay: Antimycobacterial activity against Mycobacterium bovis BCG ATCC 35734 assessed as ATP leakage by measuring extracellular ATP at 4 times MIC measured at 9 hrs post dose by luciferase reporter gene assay; type: functional, Mycobacterium tuberculosis variant bovis BCG
# [6] = tested on: Mycobacterium tuberculosis variant bovis; assay: Antimycobacterial activity against Mycobacterium bovis BCG ATCC 35734 assessed as ATP leakage by measuring extracellular ATP at 2 times MIC measured at 3 hrs post dose by luciferase reporter gene assay; type: functional, Mycobacterium tuberculosis variant bovis BCG
# [7] = tested on: Mycobacterium tuberculosis variant bovis; assay: Antimycobacterial activity against Mycobacterium bovis BCG ATCC 35734 assessed as ATP leakage by measuring intracellular ATP at 4 times MIC measured at 3 hrs post dose by luciferase reporter gene assay; type: functional, Mycobacterium tuberculosis variant bovis BCG
# [8] = tested on: Mycobacterium tuberculosis variant bovis; assay: Antimycobacterial activity against Mycobacterium bovis BCG ATCC 35734 assessed as ATP leakage by measuring extracellular ATP at 4 times MIC measured at 24 hrs post dose by luciferase reporter gene assay; type: functional, Mycobacterium tuberculosis variant bovis BCG
# [9] = tested on: Mycobacterium tuberculosis variant bovis; assay: Antimycobacterial activity against Mycobacterium bovis BCG ATCC 35734 assessed as ATP leakage by measuring intracellular ATP at 0.5 times MIC measured at 6 hrs post dose by luciferase reporter gene assay; type: functional, Mycobacterium tuberculosis variant bovis BCG
# [10] = tested on: Mycobacterium tuberculosis variant bovis; assay: Antimycobacterial activity against Mycobacterium bovis BCG ATCC 35734 assessed as ATP leakage by measuring intracellular ATP at 0.5 times MIC measured at 9 hrs post dose by luciferase reporter gene assay; type: functional, Mycobacterium tuberculosis variant bovis BCG
# [11] = tested on: Mycobacterium tuberculosis variant bovis; assay: Antimycobacterial activity against Mycobacterium bovis BCG ATCC 35734 after 5 days by broth dilution assay; type: functional; details: ATCC 35734, 120 h
# [12] = tested on: Mycobacterium tuberculosis variant bovis; assay: Antimycobacterial activity against Mycobacterium bovis BCG ATCC 35734 assessed as ATP leakage by measuring intracellular ATP at 2 times MIC measured immediatey after addition of compounds by luciferase reporter gene assay; type: functional, Mycobacterium tuberculosis variant bovis BCG
# [13] = tested on: Mycobacterium tuberculosis variant bovis; assay: Antimycobacterial activity against Mycobacterium bovis BCG ATCC 35734 assessed as ATP leakage by measuring extracellular ATP at 1 MIC measured at 9 hrs post dose by luciferase reporter gene assay; type: functional, Mycobacterium tuberculosis variant bovis BCG
# [14] = tested on: Mycobacterium tuberculosis variant bovis; assay: Bactericidal activity against Mycobacterium bovis BCG ATCC 35734 assessed as log reduction in bacterial colonies at 4 times MIC measured after 24 hrs by time-kill assay; type: functional, Mycobacterium tuberculosis variant bovis BCG
# [15] = tested on: Mycobacterium tuberculosis variant bovis; assay: Antimycobacterial activity against Mycobacterium bovis BCG ATCC 35734 assessed as ATP leakage by measuring intracellular ATP at 1 MIC measured at 9 hrs post dose by luciferase reporter gene assay; type: functional, Mycobacterium tuberculosis variant bovis BCG
# [16] = tested on: Mycobacterium tuberculosis variant bovis; assay: Antimycobacterial activity against Mycobacterium bovis BCG ATCC 35734 assessed as ATP leakage by measuring intracellular ATP at 4 times MIC measured at 24 hrs post dose by luciferase reporter gene assay; type: functional, Mycobacterium tuberculosis variant bovis BCG
# [17] = tested on: Mycobacterium tuberculosis variant bovis; assay: Antimycobacterial activity against Mycobacterium bovis BCG ATCC 35734 assessed as ATP leakage by measuring intracellular ATP at 0.5 times MIC measured immediatey after addition of compounds by luciferase reporter gene assay; type: functional, Mycobacterium tuberculosis variant bovis BCG
# [18] = tested on: Mycobacterium tuberculosis variant bovis; assay: Antimycobacterial activity against Mycobacterium bovis BCG ATCC 35734 assessed as ATP leakage by measuring extracellular ATP at 1 MIC measured at 6 hrs post dose by luciferase reporter gene assay; type: functional, Mycobacterium tuberculosis variant bovis BCG
# [19] = tested on: Mycobacterium tuberculosis variant bovis; assay: Antimycobacterial activity against Mycobacterium bovis BCG ATCC 35734 assessed as ATP leakage by measuring intracellular ATP at 0.5 times MIC measured at 24 hrs post dose by luciferase reporter gene assay; type: functional, Mycobacterium tuberculosis variant bovis BCG
# [20] = tested on: Mycobacterium tuberculosis variant bovis; assay: Bactericidal activity against Mycobacterium bovis BCG ATCC 35734 assessed as log reduction in bacterial colonies at 4 times MIC measured after 3 hrs by time-kill assay; type: functional, Mycobacterium tuberculosis variant bovis BCG
# [21] = tested on: Mycobacterium tuberculosis variant bovis; assay: Bactericidal activity against Mycobacterium bovis BCG ATCC 35734 measured after 14 days by time-kill assay; type: functional
# [22] = tested on: Mycobacterium tuberculosis variant bovis; assay: Bactericidal activity against Mycobacterium bovis BCG ATCC 35734 assessed as log reduction in bacterial colonies measured up to 24 hrs by time-kill assay; type: functional
# [23] = tested on: Mycobacterium tuberculosis variant bovis; assay: Induction of membrane integrity impairment in Mycobacterium bovis BCG ATCC 35734 assessed as pH shift at 30 uM after 3 hrs by dye based fluorescence spectroscopic method relative to control; type: functional, Mycobacterium tuberculosis variant bovis BCG
# [24] = tested on: Mycobacterium tuberculosis variant bovis; assay: Induction of membrane disruption in Mycobacterium bovis BCG ATCC 35734 at 60 uM up to 3 hrs by Sytox green uptake assay; type: functional
smiles,measurement,setting,value
COc1c(OCCCCN2CCOCC2)cc2oc3cc(OCCCCN4CCOCC4)c(CC=C(C)C)c(O)c3c(=O)c2c1CC=C(C)C,Activity,[1],16.7%
same,Activity,[2],7.7%
same,Activity,[3],72.6%
same,Activity,[4],85.7%
same,Activity,[5],58.4%
same,Activity,[6],20%
same,Activity,[7],66.6%
same,Activity,[8],68.5%
same,Activity,[9],91.4%
same,Activity,[10],92.7%
same,MIC90,[11],30 µM
same,Activity,[12],91.9%
same,Activity,[13],13.5%
same,Activity,[14],3.3
same,Activity,[15],86.5%
same,Activity,[16],31.5%
same,Activity,[17],100%
same,Activity,[18],14.4%
same,Activity,[19],95.2%
CCCN(CCC)CCCCOc1cc2oc3cc(OCCCCN(CCC)CCC)c(OC)c(CC=C(C)C)c3c(=O)c2c(O)c1CC=C(C)C,Activity,[1],10.1%
same,Activity,[2],24.2%
same,Activity,[20],1.5
same,Activity,[3],36.8%
same,Activity,[4],90.6%
same,Activity,[5],84%
same,Activity,[6],44.2%
same,Activity,[7],57.9%
same,Activity,[21],Dose-dependent effect
same,Activity,[22],Dose-dependent effect
same,Activity,[8],85.2%
same,Activity,[9],72%
same,Activity,[10],74.6%
same,MIC90,[11],3.2 µM
same,Activity,[12],97.8%
same,Activity,[13],48.5%
same,Activity,[15],51.5%
same,Activity,[16],14.8%
same,Activity,[17],100%
same,Activity,[23],76.6%
same,Activity,[18],30.4%
same,Activity,[19],84.4%
CCN(CC)CCCCOc1cc2oc3cc(OCCCCN(CC)CC)c(OC)c(CC=C(C)C)c3c(=O)c2c(O)c1CC=C(C)C,Activity,[1],42.4%
same,Activity,[2],66.1%
same,Activity,[3],8.1%
same,Activity,[4],89.5%
same,Activity,[5],94.5%
same,Activity,[6],83.6%
same,Activity,[7],10.4%
same,Activity,[8],93.2%
same,Activity,[9],77.1%
same,Activity,[10],52.8%
same,MIC90,[11],6.4 µM
same,Activity,[12],96.4%
same,Activity,[13],85.3%
same,Activity,[15],14.7%
same,Activity,[16],6.8%
same,Activity,[17],100%
same,Activity,[24],Active
same,Activity,[23],20%
same,Activity,[18],70.7%
same,Activity,[19],65.3%
